Experimental data published in patent publication US20210338782A1, “STORAGE STABLE SOMATOSTATIN-DOPAMINE CHIMERIC COMPOUNDS AND SALT FORMS THEREOF” (Cydan II, Inc., priority 2019, published 2021).
Entries after “also recorded” stand apart in the source; their conditions may differ. Structures can show the parent of a compound that is named as a salt.

Key:
Assay type in all cases: physicochemical
[1] = Thermostability of alternative salt forms of lanreotide and TBR-760 (UPLC); settings: for compound degraded: 4 weeks at 60° C. and ambient humidity; for thermostability in words: increasing temperature and humidity (25° C./60% RH, 40° C./75% RH, 60° C.) up to 4 weeks
Method: (§1) Each TBR-760 salt was further evaluated for thermolytic stability over time by setting up three different exposure conditions (25° C. at 60% relative humidity (RH); 40° C. at 75% RH; or 60° C. with open and closed container systems (open dish/closed dish). Approximately 50 mg of each salt form was weighed in a nitrogen-flushed glove box for use in the studies. All samples were stored at −20° C. in a good laboratory practice (GLP) freezer both before and after exposure to the indicated conditions.
(§2) The stability of each salt form was assessed by monitoring the post-exposure drug peak purity and by evaluating the post-exposure visual appearance of the salt. The samples were removed from the exposure conditions and allowed to equilibrate to ambient conditions for 15-20 mins. An appropriate amount of each sample was weighed for analysis and dissolved in diluent (deionized water containing 0.1% TFA) to obtain a stock concentration of 1 mg/mL. The stock solution was then diluted to 0.125 mg/mL in an HPLC vial using diluent and the samples were run on a Waters Acquity UPLC system using the parameters shown in Table 4.
We conducted thermostability studies of lanreotide acetate substantially as described in Example 6. These experiments confirmed that lanreotide acetate is […] when exposed to increasing temperature and humidity conditions over time (FIG. 45). […] (FIG. 45). This degree of thermal and humidity instability is disfavored for a pharmaceutical agent, particularly one intended for patient self-administration at home.
To determine whether a thermostable salt form of TBR-760 could be manufactured, a salt exchange was performed as described in Example 1 to generate bromide and chloride salts of TBR-760. Lanreotide bromide and lanreotide chloride salts were also generated and assessed for thermostability to evaluate the effect of the salt form on compound stability and to compare stability of lanreotide and TBR-760 of each salt.
UPLC assays performed as described in Example 6 were further used to determine the number of degradants—and thus the number of impurities—in each sample. Results showing the purity assessment of each sample following thermostability studies are shown in FIGS. 48A-48B (lanreotide and TBR-760 acetate salts), 49A-49B (lanreotide and TBR-760 bromide salts), and 50A-50B (lanreotide and TBR-760 chloride salts).

[2] = Photostability of alternative salt forms of lanreotide and TBR-760; settings: 1.2 million lux hours visible light or 200 watt hours/square meter UV light
From the text: (§3) In order to evaluate the light sensitivity and stability of TBR-760 chimeric peptide salts, all five salt forms were exposed to ultraviolet (UV) and visible light according to International Council for Harmonisation of Technical Requirements for Pharmaceuticals for Human Use (ICH) guideline Q1B for photostability testing. In brief, a Caron 6540-1 photostability chamber unit with separate UV and light chambers was used for the studies. Visible light exposure was 1.2 million lux hours and UV exposure was 200 watt hours/square meter.
Photostability of lanreotide acetate, lanreotide bromide, lanreotide chloride, TBR-760 acetate, TBR-760 bromide and TBR760 chloride was tested according to the methods of Example 7. Four samples were prepared for each salt form: one control for each of the UV and visible light exposure conditions (controls isolated from light) and one sample for exposure to each of the UV and visible light conditions. For each sample, 2-5 mg of the salt was weighed into 3 mL clear serum vials and stoppered. Vials containing control samples were wrapped in aluminum foil.
Following exposure to visible and UV light, all lanreotide and TBR-760 salts were analyzed by UPLC as described in Example 7.

[3] = Thermogravimetric analysis (TGA) of TBR-760 salt forms; settings: ramp 5.0° C. per minute from 25 to 400° C.; listed as mesylate salt
Method: Thermogravimetric analyses (TGA) were performed on all TBR-760 salt forms to evaluate thermal stability of each salt form. Studies were performed using a TGA-Q500 thermogravimetric analyzer (TA Instruments). The weight of each compound was measured while the temperature was increased at a ramp rate of 5.0° C. per minute from 25 to 400° C. […] The weight loss may be indicative of loss of adsorbed moisture, entrained solvent or volatile impurities. Decomposition of the compound appears to start at about 234° C. (sulfate salt), 245° C. (chloride salt), 252° C. (tosylate salt), and 255° C. (mesylate salt). For the acetate salt, a further ˜5% loss of weight between 110° C. and 200° C. was observed, indicating loss of volatile acetate ions over that temperature range (FIG. 8).

[4] = Photostability of TBR-760 salt forms (ICH Q1B, visible and UV light), appearance and UPLC purity
From the text: as §3
Samples were placed in clear, sealed vials and stored in the appropriate chamber alongside dark controls in amber colored vials wrapped in aluminum foil. Control samples were stored in sealed amber vials at −20° C. The appearance of exposed samples was examined visually before being analyzed via UPLC.

[5] = Solid state (thermolytic) stability of TBR-760 salt forms, open container, UPLC peak purity and appearance
Method: as §1, §2

[6] = listed as lanreotide hydrobromide
[7] = 25° C. at 60% RH, open container
[8] = 40° C. at 75% RH, open container
[9] = UPLC peak purity, 25° C. at 60% RH, open container
[10] = UPLC peak purity, 40° C. at 75% RH, open container
[11] = UPLC peak purity, 60° C., open dish
[12] = listed as hydrobromide salt of TBR-760

In the case of CC(C)[C@@H]1NC(=O)[C@H](CCCCN)NC(=O)[C@@H](Cc2c[nH]c3ccccc23)NC(=O)[C@H](Cc2ccc(O)cc2)NC(=O)[C@@H](NC(=O)[C@H](N)Cc2ccc3ccccc3c2)CSSC[C@@H](C(=O)N[C@H](C(N)=O)[C@@H](C)O)NC1=O [lanreotide bromide, lanreotide, reference compound], the compound degraded [1] is reported as “more than 7%”, the thermostability in words [1, 6] is reported as “moderately stable; also recorded: less stable than lanreotide acetate” and the “photostability in words (UPLC purity)” value [2, 6] is reported as “moderately stable”.
For CCCN1C[C@H](CSCC(=O)NCCCC[C@@H](NC(=O)CSC[C@@H]2C[C@@H]3c4cccc5[nH]cc(c45)C[C@H]3N(CCC)C2)C(=O)N[C@H]2CSSC[C@@H](C(=O)N[C@H](C(N)=O)[C@@H](C)O)NC(=O)[C@H](CC)NC(=O)[C@H](CCCCN)NC(=O)[C@@H](Cc3c[nH]c4ccccc34)NC(=O)[C@H](Cc3ccc(O)cc3)NC2=O)C[C@@H]2c3cccc4[nH]cc(c34)C[C@H]21 [TBR-760 mesylate, Dop2-D-Lys(Dop2)-cyclo[Cys-Tyr-D-Trp-Lys-Abu-Cys]-Thr-NH2], the “TGA start of decomposition” value [3] was about 255 °C, the “Purity, UV-exposed” value ([4]; UPLC, UV 200 watt hours/square meter, clear sealed vial) was 96.67 and the “Purity, Control” value ([4]; UPLC, control in sealed amber vial at -20° C.) was 98.39. For the same molecule, the “Purity, Dark Ctrl-UV” value ([4]; UPLC, dark control in UV chamber) was 98.35, the “Purity, Dark Crtl-Light” value ([4]; UPLC, dark control in visible light chamber) was 98.46 and the “Purity, Light-exposed” value ([4]; UPLC, visible light 1.2 million lux hours, clear sealed vial) was 95.3. The “Appearance, UV-exposed” value ([4]; UV 200 watt hours/square meter, clear sealed vial, listed as Mesylate) was “off-white”, the “Appearance, UV-exposed” value ([4]; UV 200 watt hours/square meter, clear sealed vial, listed as mesylate) was “white to off-white” and the “Appearance, Control” value ([4]; control in sealed amber vial at -20° C.) was “white”. For the same molecule, the “Appearance, Dark Ctrl-UV” value ([4]; dark control in UV chamber, amber vial wrapped in aluminum foil) was “white”, the “Appearance, Dark Crtl-Light” value ([4]; dark control in visible light chamber, amber vial wrapped in aluminum foil) was “white” and the “degradation upon exposure to visible or UV light, in words” value ([4]; visible and UV light, UPLC) was “more resistant to degradation than TBR-760 acetate”. The “Appearance, Light-exposed” value ([4]; visible light 1.2 million lux hours, clear sealed vial, listed as Mesylate) was “off-white”, the “Appearance, Light-exposed” value ([4]; visible light 1.2 million lux hours, clear sealed vial, listed as mesylate) was “white to off-white” and the “Appearance, T = 2 wk” value [5, 7] was “White”. The “Appearance, T = 4 wk” value [5, 7] was “White”, the “Appearance, T = 3 d” value [5, 7] was “White” and the “stability compared with the other salt forms” value ([5]; 40° C. at 75% RH and 60° C., 2 and 4 weeks) was “significantly more stable”. For the same molecule, the “Appearance, T = 2 wk” value [5, 8] was “White”, the “Appearance, T = 4 wk” value [5, 8] was “White” and the “Appearance, T = 3 d” value [5, 8] was “White”. The “Appearance, T = 2 wk” value ([5]; 60° C., open dish) was “White”, the “Appearance, T = 4 wk” value ([5]; 60° C., open dish) was “White” and the “Appearance, T = 3 d” value ([5]; 60° C., open dish) was “White”. For the same molecule, the “Purity, T = 2 wk” value [5, 9] was 98.14, the “Purity, T = 4 wk” value [5, 9] was 97.77 and the “Purity, T = 2 wk” value [5, 10] was 97.49. The “Purity, T = 4 wk” value [5, 10] was 97.35, the “Purity, T = 2 wk” value [5, 11] was 97.56 and the “Purity, T = 4 wk” value [5, 11] was 97.17. For the same molecule, the “Purity, Control” value ([5]; UPLC peak purity, control, stored at -20° C.) was 98.39 and the “Appearance, Control” value ([5]; control, stored at -20° C.) was “White”.
In the case of CCCN1C[C@H](CSCC(=O)NCCCC[C@@H](NC(=O)CSC[C@@H]2C[C@@H]3c4cccc5[nH]cc(c45)C[C@H]3N(CCC)C2)C(=O)N[C@H]2CSSC[C@@H](C(=O)N[C@H](C(N)=O)[C@@H](C)O)NC(=O)[C@H](CC)NC(=O)[C@H](CCCCN)NC(=O)[C@@H](Cc3c[nH]c4ccccc34)NC(=O)[C@H](Cc3ccc(O)cc3)NC2=O)C[C@@H]2c3cccc4[nH]cc(c34)C[C@H]21 [TBR-760 bromide, Dop2-D-Lys(Dop2)-cyclo[Cys-Tyr-D-Trp-Lys-Abu-Cys]-Thr-NH2], the compound degraded [1] is reported as “more than 23%”, the thermostability in words [1, 12] is reported as “significantly degraded” and the “photostability in words (UPLC purity)” value [2] is reported as “greater loss of purity than TBR-760 acetate or TBR-760 chloride”. The “visible appearance after exposure to visible and UV light” value ([2]; versus control) was “did not visibly change” and the “photostability in words (UPLC purity)” value [2, 12] was “significantly degraded”.
In the case of CC(C)[C@@H]1NC(=O)[C@H](CCCCN)NC(=O)[C@@H](Cc2c[nH]c3ccccc23)NC(=O)[C@H](Cc2ccc(O)cc2)NC(=O)[C@@H](NC(=O)[C@H](N)Cc2ccc3ccccc3c2)CSSC[C@@H](C(=O)N[C@H](C(N)=O)[C@@H](C)O)NC1=O [lanreotide acetate, lanreotide, reference compound], the thermostability in words [1] is reported as “thermostable; also recorded: stable” and the “photostability in words (UPLC purity)” value [2] is reported as “stable to both visible and UV light”.
